Assays:
[1] = cited from earlier work
[2] = tested on: duplex nucleic acid substrates bearing single abasic, single NCP, and tandem NCP sites; experiment: Fluorogenic probe library screen, overall; format: binding; settings: 2 μM probe, 2 μM duplex
Procedure: (§1) Fluorescence Measurements. Samples for screening were prepared as solutions with 50 mM HEPES (pH 7.5), 100 mM NaCl, 2 μM dsDNA/dsRNA, 2 μM probe (4 μM probe with tandem mismatch). Prior to use, nucleic acids were annealed (95° C./5 min, slow cool to RT over 2 h) to pre-form the duplex. Prepared samples were incubated at room temperature for 30 min before measuring fluorescence (Thermo Fisher Nanodrop 3300, excitation/emission=470/522 nm). For each measurement, 2 μl of sample was applied to the center of the nanodrop probe. All fluorescence values are the average of triplicate measurements, starting from fresh sample preparation. Error bars indicate standard deviation. The relative intensity (turn-on) was calculated using the equation below.

[3] = tested on: tandem NCP sites (2×2 internal bulges) in dsRNA; experiment: Tandem NCP RNA library screen; format: binding; settings: 4 μM probe, 2 μM RNA duplex
Procedure: as §1

[4] = parent dye free in solution; cited from earlier work

For `O=c1[nH]c(=O)[nH]c(=O)[nH]1` [cyanuric acid], the pKa [1] is given as ~ 6.9.

In the case of `Nc1nc(=O)[nH]c(=O)[nH]1` [ammelide], the pKa [1] is given as ~ 6.9.

In the case of `Oc1nc(O)nc(O)n1` [CA], the “binding in the abasic or single NCP screens” value [2] is reported as “did not show any binding” and the “targeting of AG/CU internal bulge” value [3] is reported as “could be targeted”.

In the case of `CN1C(=Cc2cc[n+](C)c3ccccc23)Sc2ccccc21` [thiazole orange], the “quantum yield in solution” value [4] is given as ~ 10^−4.
